Assays:
CXCL10 = target: T1, CXCL10 (Homo sapiens, UniProt P02778); experiment: Selectivity, neutraligand protocol, EGFP-CXCR3+ HEK cells; assay type: cell-based; conditions: 10 μM compound, 5 nM CXCL10, EGFP-CXCR3+ HEK cells
T1 construct: (His)6; made in house; host or cells: E. coli BL21 (DE3)
Protocol: (§1) Figure 6 (a) Selectivity of CCL17 and CCL22 neutraligands towards 10 chemokines according to the “neutraligand protocol”. […] Each column represents the mean (block) ± SD (bars) of n = 3 experiments performed in triplicate. *p < 0.05; **p < 0.01; ***p < 0.005 as compared to chemokine + DMSO. (b) Chemokine neutraligands inhibited CCR4 endocytosis induced by CCL22 or CCL17. EGFP-CCR4^+ HEK cells were incubated for 30 min with DMSO or chemokine (100 nM CCL22 or CCL17) in the presence or absence of test compounds. […] Cell surface EGFP-tagged CCR4 receptors were measured by EGFP antibody labeling and flow cytometry analysis. CCR4 internalization was expressed as a percentage of total receptor surface expression calculated using control cells incubated with DMSO (100%). Each column represents the mean (block) ± SD (bars) of n = 3 experiments performed in triplicate. *p < 0.05; **p < 0.01; ***p < 0.005 as compared to chemokine alone. (c,d) Inhibition of CCL17 and CCL22- induced CCR4^+HUT78 T cell chemotaxis by neutraligands. […] The number of migrating cells induced by a chemokine alone was set at 100% migration. The number of migrating cells in the presence of chemokine and compounds were expressed as the corresponding percentages. Results were analyzed by fitting the experimental curves (% of migrating cells vs log compound concentration) using the Kaleidagraph software program, and the corresponding IC50 values were calculated. Means and SD values of triplicates were plotted.
(§2) Human cDNAs encoding CCR4 and CXCR3 receptors were cloned in pIRES plasmid (Clontech) while cDNAs encoding CCR2, CCR5, CXCR2 and CXCR4 receptors were cloned in pCEP4 vector (Life technologies). […] Stably EGFP-CCR4^+ HEK cells were selected for 5 weeks with geneticin (G-418, 600μg/ml), and resulting cell clones were checked by fluorescence microscopy and FACS analysis. […]
(§3) Dye loaded cells were placed in the FlexStation 3 (Molecular Devices). Calcium mobilization was measured at 401 and 475 nm emission fluorescence after excitation at 355 nm. […] Raw fluorescence data (at 401 and 475 nm) were exported and the ratio 401/475 was calculated. The calcium response values (height of peak response over baseline) were determined. […] The Z’ factor[29] was calculated according to the following equation: Z’ = 1-(3SD+ + 3SD−)/|Ave+ − Ave−|, where SD+ and Ave+ are respectively the standard deviation and the mean value of the positive controls (chemokine + DMSO), while SD− and Ave− are respectively the standard deviation and the mean value of the negative controls (HEPES-BSA (0.1%) mixed with DMSO, or cells mixed with C-021). Hit molecules were confirmed by performing concentration-response curves and their half maximal inhibitory concentration (IC50) values were calculated using the Kaleidagraph software.

CXCL11 = target: T2, CXCL11 (Homo sapiens, UniProt O14625); experiment: as above; assay type: cell-based; conditions: 10 μM compound, 5 nM CXCL11, EGFP-CXCR3+ HEK cells
T2 construct: thioredoxin-hexahistidin (TRX-(His)6) with enterokinase site; made in house; host or cells: E. coli BL21 (DE3)
T2 sequence (O14625 22-94): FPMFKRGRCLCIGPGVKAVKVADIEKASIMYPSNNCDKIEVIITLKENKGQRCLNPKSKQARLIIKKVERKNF
Protocol: as §1, §2, §3

[1] = test system: Balb/c mice sensitized and challenged with OVA; experiment: Mouse model of allergic eosinophilic airway inflammation (OVA), BAL cell counts; assay type: in vivo; conditions: vs vehicle-treated OVA mice; for overall number of inflammatory cells in BALF: 350 μmol/kg I.P. 2 h before each challenge; for CD4+ T cells in BALF / CD11c+F4/80− dendritic cells in BALF / T cells in BALF / neutrophil counts in BALF / number of CD11c+F4/80+ macrophages in BALF / recruited eosinophils in BALF: 350 μmol/kg I.P.
Protocol: The differential number of cells recovered in BAL fluid 24 h after the last challenge was counted by flow cytometry. Live leukocytes were identified as CD45^+DAPI^− cells then differentiated into T cells (CD11b^lowCD19^−CD3^+), CD4^+T cells (CD11b^lowCD19^−CD3^+CD4^+), eosinophils (CD11b^+CD11c^−GR1^−), neutrophils (CD11b^+CD11c^−GR1^+), macrophages (CD11b^+GR1^−CD11c^+F4/80^+), dendritic cells (CD11b^+GR1^−CD11c^+F4/80^−).
Nine week-old male Balb/c mice (Janvier) were sensitized on days 1 and 7 by intraperitoneal injection of ovalbumin (OVA, 50μg, grade V, Sigma-Aldrich) adsorbed on aluminium hydroxide (2 mg, Sigma-Aldrich) in PBS. Mice were challenged intranasally with OVA (10 μg) in 25μl of saline on days 18–21. Control mice received intranasal administrations of saline alone. […] Animal experimentation was approved by the local ethics committee (Comité Régional d’Ethique en Matière d’Expérimentation Animale de Strasbourg CREMEAS) and carried out in accordance with the approved guidelines. Collection of the bronchoalveolar lavage fluid (BALF) was performed 24 h after the last OVA challenge as described previously. Cell counts were assessed by flow cytometry (LSRII® cytometer, BD bioscience). BAL cells were added with FCblock (5 μl, 553142, BD bioscience) in a black microplate, incubated for 20 min at room temperature. Then, marker antibodies were added: CD11c-FITC (557400, BD bioscience), Gr-1-Pe-eFluor610 (61-5931-82, eBioscience), CD11b-APC-Cy7 (557657, BD bioscience), CD45-AlexaFluor700 (103128, BioLegend), CD3-BV605 (564009, BD bioscience), CD4-PerCP-Cy5.5 (45-0042-82, eBioscience), F4/80-PE (12-4801-82, eBioscience). Antibodies were incubated for 30 min before DAPI (5 μl, BD bioscience) addition, and flow cytometry was performed immediately.

T1 sequence (P02778 22-98): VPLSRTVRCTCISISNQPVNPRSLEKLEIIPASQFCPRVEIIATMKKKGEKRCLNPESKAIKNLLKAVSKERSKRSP

SMILES	effect on calcium responses induced by CXCL10 (CXCL10)	effect on calcium responses induced by CXCL11 (CXCL11)	overall number of inflammatory cells in BALF [1]	CD4+ T cells in BALF [1]	CD11c+F4/80− dendritic cells in BALF [1]	T cells in BALF [1]	neutrophil counts in BALF [1]	number of CD11c+F4/80+ macrophages in BALF [1]	recruited eosinophils in BALF [1]
O=C(OCC(O)CO)c1ccccc1O (stereo not drawn) [GPN136, 2,3-dihydroxypropyl 2-hydroxybenzoate]	no effect	no effect	significantly reduced	significantly reduced	significantly reduced	significantly reduced	did not	not modified	significantly reduced
CC(C)=CCn1cnc2c1c(=O)n(C)c(=O)n2C [GPN279, 1,3-dimethyl-7-(3-methylbut-2-enyl)-1H-purine-2,6(3H, 7H)-dione]	no effect	no effect	significantly reduced	significantly reduced	significantly reduced	significantly reduced	significantly inhibited	not modified	significantly reduced

— article PMC4595804, “A strategy to discover decoy chemokine ligands with an anti-inflammatory activity” (Scientific Reports, 2015)
